Consider two compounds from patent publication US20260193294A1, “POLYPEPTIDE INHIBITOR, AND PREPARATION METHOD THEREFOR AND USE THEREOF” (SHANGHAI HANSOH BIOMEDICAL CO., LTD., priority 2022, published 2026).

Positions of bridges follow the written chain, without caps; N, C: chain ends. Non-standard residues stand in square brackets, D forms with d. Residues, ends and D or L forms follow the SMILES beside them. *: point of attachment. X1 = CN(CCNC(=O)CCOCCOCC[N+](C)(C)CCNC(=O)COCCOCCNC(=O)COCCOCCNC(=O)CC[C@H](NC(=O)CCCCCCCCCCCCCCC(=O)O)C(=O)O)*; Trp(7-Me) = Cc1cccc2c(C[C@H](N)C(=O)O)c[nH]c12; 2Nal = N[C@@H](Cc1ccc2ccccc2c1)C(=O)O; AEF = NCCOc1ccc(C[C@H](N)C(=O)O)cc1; 3Pal = N[C@@H](Cc1cccnc1)C(=O)O; Pen = CC(C)(S)[C@H](N)C(=O)O; Thp = NC1(C(=O)O)CCOCC1; Sar = CNCC(=O)O

Data set [1] relates to IL23-induced rat otitis model. Put plainly: In vivo pharmacodynamics in IL23-induced rat otitis model (ear thickening). More on the design: species or system SD rats. Conditions: 10 mg/kg, gavage. An excerpt:
To evaluate the in vivo efficacy of the compounds in an IL23-induced rat otitis model.
SD rats, 6-8 weeks old, male, purchased from Jiangsu GemPharmatech Co., Ltd.
• a. […]

Data set [2] can be described thus: Pharmacokinetic determination in beagle dogs (IV). The following applies: male, dog, plasma, 0.2 mg/kg.
Protocol: Beagle dogs were used as test animals to study the pharmacokinetic behavior of the compounds of the examples in the rats (plasma) after IV administration.
3 beagle dogs/group, male, from Yizheng Anlimao Biotechnology Co., Ltd.
The compounds of the examples were weighed and dissolved in this solution, vortexed, ultrasonicated for 5 min, and filtered through a 0.22 μm filter membrane to obtain colorless clear solutions with a concentration of 0.1 mg/mL.
3 beagle dogs/group, male were fasted overnight and then respectively administered IV at a dose of 0.2 mg/kg and a volume of 2 mL/kg.
1) Acetonitrile (200 μL) was added to the plasma sample (50 L) for precipitation, and the mixture was mixed and centrifuged at 4500 rpm for 15 min.
(§11) 2) The treated supernatant solution was taken and subjected to LC/MS/MS to analyze the concentrations of the test compounds. LC/MS/MS analysis instrument: AB Sciex Triple Quad 6500+.
Premier Peptide CSH C18 130A 1.7 μm 2.1*100 mm Column, mobile phase: liquid A: 5% acetonitrile aqueous solution (0.1% formic acid), and liquid B: an aqueous solution of 95% acetonitrile (0.1% formic acid) • Flow rate: 0.6 mL/min • Elution time: 0-2.0 min, the eluent was as follows:
(§12) The main pharmacokinetic parameters were calculated using WinNonlin 8.1.
Data set [3] in a line: Pharmacokinetic determination in rats (IV). Conditions: male, SD, rat, plasma, 1 mg/kg.
Protocol: SD rats were used as test animals to study the pharmacokinetic behavior of the compounds of the examples in the rats (plasma) after oral or IV administration.
Preparation of intravenous drug: PBS
The compounds of the examples were weighed and dissolved in this solution, vortexed, ultrasonicated for 5 min, and filtered through a 0.22 μm filter membrane to obtain colorless clear solutions with a concentration of 0.2 mg/mL.
3 SD rats/group, male were fasted overnight and then respectively administered IV at a dose of 1 mg/kg and a volume of 5 mL/kg.
• Before administration and at 0.083 h, 0.25 h, 0.5 h, 1.0 h, 2.0 h, 4.0 h, 6.0 h, 8.0 h, and 24.0 h after administration (IV), 0.2 mL of blood was collected from the jugular vein, placed in an EDTA-2K test tube, and centrifuged at 6000 rpm for 6 min at 4° C. to separate plasma, which was stored at −20° C.; and the rats were fed 4 h after administration.
1) Acetonitrile (200 μL) was added to the plasma sample (50 μL) for precipitation, and the mixture was mixed and centrifuged at 4500 rpm for 15 min.
as §11
• Liquid phase conditions: Shimadzu LC-30AD pump • Chromatographic column: HALO 90A PFP 2.7 μm 2.1×30 mm, mobile phase: liquid A: 5% acetonitrile aqueous solution (0.1% formic acid), and liquid B: an aqueous solution of 95% acetonitrile (0.1% formic acid) • Flow rate: 0.6 mL/min • Elution time: 0-2.0 min, the eluent was as follows:
as §12
A further data set in a line: in vivo. The following applies: male, SD, rat, iv, 1 mg/kg.
A short description of data set [4]: Stability in plasma (human). The class given is in vitro ADME. Conditions: human, plasma. The procedure:
(§1) To study the stability of the compounds of the examples in the plasmas of mice, rats, dogs and humans.
(§2) Preparation of plasma: Animal or human whole blood was collected, then put into a test tube containing an anticoagulant, and centrifuged at 3500 rpm for 10 min, and the upper pale yellow plasma was collected; • working solution of 10 μM test compound: a stock solution was prepared with DMSO, and the working solution was prepared with 100 mM phosphate buffer; • working solution of 10 μM positive control: • procaine: 2.36 mg of procaine was weighed and diluted into a 10 mM stock solution with 1 mL of DMSO. 10 μL of the 10 mM stock solution was pipetted into 1 mL of 100 mM phosphate buffer, such that the final concentration was 100 μM; and • enalapril: 4.93 mg of enalapril was weighed and diluted into a 10 mM stock solution with 1 mL of DMSO; and 10 μL of the 10 mM stock solution was pipetted into 1 mL of 100 mM phosphate buffer, such that the final concentration was 100 μM.
(§3) In a 96-well plate, 285 μL of plasma and 15 μL of 10 μM compound (test compound, and positive control) were successively added and incubated at 37° C.
(§4) 40 μL was taken at 0, 15, 30, 60, 90, and 120 min (sampling points could be fine-tuned), respectively, and 160 μL of an acetonitrile stop solution containing an internal standard was added.
(§5) After centrifugation (3500 rpm, 10 min), 50 μL of the supernatant was taken, diluted by adding 50 μL of DDH2O, and then injected for LC-MS/MS.
(§6) • Instrument: Shimadzu LC-20 AD • Chromatographic column: Phenomenex Gemiu® C18 (50*4.6 mm, 5 μm particle size) • Mobile phase: A: acetonitrile, B: 0.1% formic acid solution • Elution gradient: […]: 5% A→95% A, 2.0-2.1 min: […] • Flow rate: 0.8 mL/min • Run time: 5.0 min • Injection volume: 5 μL
(§7) • Instrument: API4000 liquid chromatography mass spectrometer, AB, US • Ion source: electrospray ionization source (ESI) • Drying gas: N2, temperature 500° C. • Electrospray voltage: 5500V • Detection mode: positive ion detection • Scan mode: multi reaction monitoring (MRM) mode • Scan time: 0.1 s
(§8) All calculations were carried out using Microsoft Excel. The peak area ratio was determined by an extracted ion chromatogram.
(§9) The residual percentage of the compound at each time point was calculated by the following equation: Residual percentage at t hours (%)=peak area ratio at t hours/peak area ratio at 0 hour×100%, in which the peak area ratio at t hr was the peak area ratio of the […] at t min; and • the slope value k was determined by linear regression on the natural logarithm of the curve of the residual percentage of the parent drug versus the incubation time.
(§10) In vitro half-life (in vitro t1/2) was determined by the slope value: […]

The test system of data set [5] is activation of STAT3 phosphorylation by hIL23 in DB cells. Put plainly: Blocking the activation of STAT3 phosphorylation by hIL23 in DB cells (p-STAT3 ELISA). The following applies: DB cells stimulated by rhIL-23 0.5 nM, half an hour; read-out: pStat3 IC50. Type of data set: cell-based, Human. The protocol:
To determine the inhibitory activity of the compounds of the present disclosure on the activation of STAT3 phosphorylation by hIL23 in DB cells
The compounds produced above were added to DB (ATCC Cat #CRL-2289) cells to inhibit the signal transduction of rhIL-23 cytokine. The screening of compounds was carried out by a multi-well plate (suitable for ELISA assay). Generally, in the presence of some of the above compounds of the present disclosure, 6.25×10^6 cells/ml of DB cells were stimulated by rhIL-23 (0.5 nM, R&D SYSTEMS) in RPMI medium (Invitrogen) containing 10% of FBS, and after half an hour, lysis was carried out on ice using 50 μL of 2×lysis buffer (CST). The content of p-STAT3 in the lysate was determined by PathScan Phospho-Stat3 (Tyr705) Sandwich ELISA Kit (CST Cat #7300C), so as to calculate the activity of the compounds of the present disclosure in blocking rhIL23 signal transduction in DB cells.
The inhibition rate was calculated as follows: […]
By using log (inhibitor) vs. response—Variable slope (four parameters) in Graphpad, the data of ELISA experiment results were subjected to non-linear regression fitting to fit a curve and obtain the IC50 value.
(In general: In an ELISA, binding on a coated surface is turned into a signal by an enzyme label.)

A short description of another data set: in vitro. Type of data set: in vitro ADME. Conditions: plasma. The protocol: as §1, §2, §3, §4, §5, §6, §7, §8, §9, §10

`CC(=O)NCCCC[C@@H]1NC(=O)[C@H](Cc2c[nH]c3c(C)cccc23)NC(=O)[C@H]([C@@H](C)O)NC(=O)[C@H](CC(N)=O)NC(=O)[C@@H](NC(C)=O)C(C)(C)SSC(C)(C)[C@@H](C(=O)N[C@@H](Cc2ccc(OCCN)cc2)C(=O)N[C@@H](Cc2ccc3ccccc3c2)C(=O)NC2(C(=O)N[C@@H](CCC(=O)O)C(=O)N[C@@H](CC(N)=O)C(=O)N[C@@H](Cc3cccnc3)C(=O)N(C)CC(N)=O)CCOCC2)NC1=O` [PN-235, reference compound] (Ac-[Pen]NT[Trp(7-Me)]K(Ac)[Pen][AEF][2Nal][Thp]EN[3Pal][Sar]-NH2; disulfide 1-6 (inferred); N-terminus and C-terminus assumed): the “Inhibition rate on Day 4 (ear thickening)” value in data set [1] (BID) was determined as 55.35%. In data set [2], this compound gave an AUC(0-inf) of 2030 ng·h/mL, an AUC(0-t) of 2020 ng·h/mL, a C0 of 1250 ng/mL and an MRT of 3.1 h. In data set [2], this compound gave a clearance of 1.68 mL/min/kg and a half-life of 246 min. In data set [3], this compound had a total exposure AUC(0-inf) of 2670 ng·h/mL, an exposure AUC(0-t) of 2620 ng·h/mL, a C0 of 4290 ng/mL and an MRT of 0.9 h. In data set [3], this compound gave a clearance of 6.2 mL/min/kg and a half-life of 42 min.

With `CC(=O)NCCCC[C@@H]1NC(=O)[C@H](Cc2c[nH]c3c(C)cccc23)NC(=O)[C@H]([C@@H](C)O)NC(=O)[C@H](CC(N)=O)NC(=O)[C@@H](NC(C)=O)C(C)(C)SSC(C)(C)[C@@H](C(=O)N[C@@H](Cc2ccc(OCCN)cc2)C(=O)N[C@@H](Cc2ccc3ccccc3c2)C(=O)NC2(C(=O)N[C@@H](CCC(=O)O)C(=O)N[C@@H](CC(N)=O)C(=O)N[C@@H](Cc3cccnc3)C(=O)N(C)CCNC(=O)CCOCCOCC[N+](C)(C)CCNC(=O)COCCOCCNC(=O)COCCOCCNC(=O)CC[C@H](NC(=O)CCCCCCCCCCCCCCC(=O)O)C(=O)O)CCOCC2)NC1=O` [Example 1] (Ac-[Pen]NT[Trp(7-Me)]K(Ac)[Pen][AEF][2Nal][Thp]EN[3Pal]-X1; disulfide 1-6), the half-life in the data set “in vivo” was 294 min. In data set [4], the half-life at 0.5 μM is 2.69 days and the amount remaining at 4 h, 0.5 µM was 94.3%. The concentration for half-maximal inhibition (IC50) in data set [5] turned out to be 0.025 nM. For the same compound, the “Inhibition rate on Day 4 (ear thickening)” value in data set [1] (QD) turned out to be 51.22%. In “in vitro” (dog), this compound had a half-life at 0.5 μM of 6.18 days and a share remaining at 4 h, 0.5 µM of 99.7%. Further, in the data set “in vitro” (mouse), the half-life at 0.5 μM is 1.33 days and the share remaining at 4 h, 0.5 µM is 93.8%. In the data set “in vitro” (rat), this compound had a half-life at 0.5 μM of 3.15 days and a share remaining at 4 h, 0.5 µM of 98.7%. Further, in data set [3], the AUC(0-inf) is 46700 ng·h/mL, the AUC(0-t) is 45400 ng·h/mL, the C0 was 10300 ng/mL and the MRT is 6.1 h. The compound also yielded a clearance in data set [3] of 0.35 mL/min/kg.

By AUC(0-inf) is commonly meant total exposure, with the tail of the curve extrapolated. A low value points to low exposure. In general, AUC(0-t) refers to the area under the concentration-time curve up to a stated or last time point. A lower AUC(0-t) goes with low exposure. As usually defined, the MRT is a mean duration of stay, worked out from the concentration-time curve. As a reminder, the clearance is the volume of plasma or blood freed of the substance per unit of time. As a reminder, the half-life is how long it takes for the measured level to halve. Low values mean rapid decline, high ones slow decline. In general, amount remaining refers to what is left of the initial amount, in per cent. The low end stands for more turnover, the high end for less turnover. Broadly, the IC50 is the concentration that gives 50% inhibition.
